Source: patent US9943569B2, “Method for preventing or reducing postoperative pulmonary complications” (OSAKA UNIVERSITY, priority 2015, dated 2018)

Assays:
[1] = tested on: patients undergoing esophagectomy; assay: Time required to attain positive nitrogen balance; format: in vivo, human; conditions: ghrelin 0.5 μg/kg/h continuous i.v. for 5 days, n=20
Protocol: (§1) The primary endpoint of this study was SIRS duration. The secondary endpoints were postoperative complications, serum C-reactive protein (CRP) and IL-6 levels, time required to attain a positive nitrogen balance, and changes in body weight and body composition. Postoperative complications were defined as adverse events caused by surgery. Patients received an intravenous continuous infusion of ghrelin (0.5 μg/kg/h) or placebo (pure saline) for 5 days postoperatively. Ghrelin was diluted to a final volume of 48 mL with saline, and the solution was administered at a rate of 2 mL/h by using an infusion pump through a central venous catheter inserted into the right subclavian vein. The same amount of ghrelin was administered via intravenous infusion during the 5 days of treatment; the dose was calculated on the basis of body weight on the day before surgery. Patients in the placebo group received the corresponding infusion containing pure saline using same procedure.

[2] = tested on: patients undergoing esophagectomy; assay: Adverse events attributable to ghrelin administration in the phase II study; format: in vivo, human; conditions: during the study period; 0.5 μg/kg/h continuous i.v. for 5 days, n=20
Protocol: as §1
In total, 40 enrolled patients were randomized into either the ghrelin group (20 patients) or the placebo group (20 patients). All patients received the planned dose of ghrelin or placebo during the planned period. […]

[3] = tested on: patients after esophagectomy; assay: Phase I study of ghrelin administration during the postoperative period after esophagectomy; format: in vivo, human
[4] = tested on: patients undergoing esophagectomy; assay: Postoperative complications according to the Clavien-Dindo classification; format: in vivo, human
Text: Forty patients with primary esophageal cancer who underwent esophagectomy were selected to participate in a randomized, placebo-controlled phase II study. The patients were selected based on the following eligibility criteria: (1) thoracic esophageal cancer treated by performing radical esophagectomy with gastric tube reconstruction; (2) age 20 to 75 years; (3) adequate functioning of major organs; (4) no other active malignancies; and (5) provision of written informed consent. The following exclusions criteria were used: (1) preoperative diagnosis of esophageal cancer invasion to the aorta or trachea and other organs; (2) patients with multiple cancer; (3) severe respiratory problems, such as emphysema; (4) patients with prior ischemic heart disease; (5) liver cirrhosis or active hepatitis; (6) renal failure requiring dialysis treatment; (7) poorly controlled diabetes mellitus or disease requiring insulin treatment; (8) consecutive use of steroids; and (9) mental disorder. The patients were randomly divided into a ghrelin group and a placebo group at a 1:1 ratio. The approach for thoracic manipulation (i.e., open or thoracoscopic surgery) was used as the only stratification factor. Group allocation was performed before the initiation of surgery. The study was performed in a double-blind manner, and an independent researcher assessed outcomes.
as §1
(§2) Blood sampling was performed at the following 7 time points: before surgery; 2 hours after initiation of surgery (during thoracotomy); 4 hours after initiation of surgery (during laparotomy); and on PODs 1, 3, 7, and 10. Complete blood count was performed every day for at least 10 PODs. If the leukocyte count was not within the normal range on POD10, complete blood counts were performed daily until it was within the normal range for 3 consecutive days. SIRS was diagnosed according to the criteria proposed by the American College of Chest Physicians/Society of Critical Care Medicine Consensus Conference^32 and when 2 or more of the following criteria were present: (1) body temperature less than 36° C. or more than 38° C.; (2) heart rate more than 90 beats per minute; (3) tachypnea with more than 20 breaths per minute or an arterial partial pressure of carbon dioxide less than 32 mm Hg; and (4) white blood cell count less than 4000 cells/mm^3, >12,000 cells/mm^3, or an immature (band) form more than 10%. Postoperative complications were evaluated according to the Clavien-Dindo classification.^33 Grade I required no treatment, grade II required medical therapy, grade Ma required interventions but not general anesthesia, grade Mb required general anesthesia, grade IV represented life-threatening states that required intensive care, and grade V represented death.

GH secretion = assay: Mode of ghrelin administration and GH secretion (unpublished data); format: in vivo; conditions: continuous infusion vs periodic injection
C-reactive protein (CRP) = assay: Postoperative change in serum CRP; format: in vivo, human; conditions: n=20
Protocol: as §1, §2

[5] = ghrelin 0.5 μg/kg/h continuous i.v. for 5 days, n=20

Q: Which results are given for CCCCCCCC(=O)OC[C@H](NC(=O)[C@H](CO)NC(=O)CN)C(=O)N[C@@H](Cc1ccccc1)C(=O)N[C@@H](CC(C)C)C(=O)N[C@@H](CO)C(=O)N1CCC[C@H]1C(=O)N[C@@H](CCC(=O)O)C(=O)N[C@@H](Cc1cnc[nH]1)C(=O)N[C@@H](CCC(N)=O)C(=O)N[C@@H](CCCNC(=N)N)C(=O)N[C@H](C(=O)N[C@@H](CCC(N)=O)C(=O)N[C@@H](CCC(N)=O)C(=O)N[C@@H](CCCNC(=N)N)C(=O)N[C@@H](CCCCN)C(=O)N[C@@H](CCC(=O)O)C(=O)N[C@@H](CO)C(=O)N[C@@H](CCCCN)C(=O)N[C@@H](CCCCN)C(=O)N1CCC[C@H]1C(=O)N1CCC[C@H]1C(=O)N[C@@H](C)C(=O)N[C@@H](CCCCN)C(=O)N[C@@H](CC(C)C)C(=O)N[C@@H](CCC(N)=O)C(=O)N1CCC[C@H]1C(=O)N[C@@H](CCCNC(=N)N)C(=O)O)C(C)C [ghrelin]?
A: time required to attain positive nitrogen balance [1]: 2.6 ± 1.6 days; adverse events attributable to ghrelin administration [2]: No adverse events attributable to ghrelin administration were observed; systemic inflammation relative to conventional management protocols without ghrelin [3]: tended to be suppressed; effect on fundamental vital signs (blood pressure, heart rate, urine output, pulmonary and liver function) ([3]; postoperative intensive care management): did not affect fundamental vital signs; Anastomotic leak, number of patients ([4]; Grade 0, n=20): 19; Arrhythmia, number of patients ([4]; Grade 0, n=20): 19; Bleeding, number of patients ([4]; Grade 0, n=20): 20; Lymphorrhea, number of patients ([4]; Grade 0, n=20): 20; Pneumonia, atelectasis, number of patients ([4]; Grade 0, n=20): 14; Recurrent nerve paralysis, number of patients ([4]; Grade 0, n=20): 18; Wound infection, number of patients ([4]; Grade 0, n=20): 19; Anastomotic leak, number of patients ([4]; Grade I, II, n=20): 1; Arrhythmia, number of patients ([4]; Grade I, II, n=20): 1; Bleeding, number of patients ([4]; Grade I, II, n=20): 0; Lymphorrhea, number of patients ([4]; Grade I, II, n=20): 0; Pneumonia, atelectasis, number of patients ([4]; Grade I, II, n=20): 4; Recurrent nerve paralysis, number of patients ([4]; Grade I, II, n=20): 2; Wound infection, number of patients ([4]; Grade I, II, n=20): 1; Anastomotic leak, number of patients ([4]; Grade III, IV, n=20): 0; Arrhythmia, number of patients ([4]; Grade III, IV, n=20): 0; Bleeding, number of patients ([4]; Grade III, IV, n=20): 0; Lymphorrhea, number of patients ([4]; Grade III, IV, n=20): 0; Pneumonia, atelectasis, number of patients ([4]; Grade III, IV, n=20): 2; Recurrent nerve paralysis, number of patients ([4]; Grade III, IV, n=20): 0; Wound infection, number of patients ([4]; Grade III, IV, n=20): 0; Postoperative complications of higher than grade 1 (Clavien-Dindo), number of patients [4, 5]: 10; Postoperative complications of higher than grade 1 (Clavien-Dindo), share of patients [4, 5]: 50%; incidence of pulmonary complications, including postoperative pneumonia and atelectasis, versus placebo group ([4]; ghrelin 0.5 μg/kg/h continuous i.v. for 5 days, P=0.016): significantly lower; GH secretion by mode of ghrelin administration (GH secretion): continuous infusion was better than periodic injection; Serum CRP (C-reactive protein (CRP); POD1): 6.6 ± 2.0 mg/dL; Serum CRP (C-reactive protein (CRP); POD3): 11.1 ± 6.6 mg/dL; Serum CRP (C-reactive protein (CRP); POD3, listed as Ghrelin): 11.1 ± 6.6 mg/dL; Serum CRP (C-reactive protein (CRP); POD7): 4.3 ± 3.6 mg/dL; Serum CRP (C-reactive protein (CRP); POD7, listed as Ghrelin): 4.3 ± 3.6 mg/dL; Serum CRP (C-reactive protein (CRP); POD10): 2.1 ± 2.3 mg/dL; Serum CRP (C-reactive protein (CRP); POD10, listed as Ghrelin): 2.1 ± 2.3 mg/dL; Serum CRP (C-reactive protein (CRP); Preoperative (baseline)): 0.3 ± 0.5 mg/dL
